By EC50 is commonly meant the concentration giving half of the maximal effect. Lower therefore signals greater potency.

Molecules are shown by their SMILES.

GPR40, sequence (O14842 whole entry): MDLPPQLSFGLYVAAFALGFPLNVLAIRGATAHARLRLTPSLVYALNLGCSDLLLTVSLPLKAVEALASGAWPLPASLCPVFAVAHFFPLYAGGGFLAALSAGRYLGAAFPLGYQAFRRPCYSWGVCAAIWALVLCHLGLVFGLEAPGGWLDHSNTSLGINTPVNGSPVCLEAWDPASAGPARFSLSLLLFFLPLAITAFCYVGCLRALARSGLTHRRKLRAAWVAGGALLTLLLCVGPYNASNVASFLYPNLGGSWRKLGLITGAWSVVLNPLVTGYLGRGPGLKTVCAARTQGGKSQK

This assay concerns the target GPR40 (Homo sapiens, UniProt O14842). Put plainly: Cell-based aequorin assay (CHO cells stably expressing GPR40 and aequorin). The arrangement: expressed in transfected cells; host or cells: CHO cells stably transfected with GPR40 and aequorin. Particulars: activation of human GPR40, CHO cells, 0.01% HSA. The procedure: Briefly, the Aequorin assays were performed on doubly stable CHO cells expressing GPR40 and Aequorin DNA. […] The luminescence was recorded over a period of 20 seconds with a Microlumat luminometer (Berthold). […] The inositol phosphate assay was performed on an A9 cell line stably transfected with GPR40 (A9_GPR40). The cells were incubated with different concentrations of compounds and [^3H] inositol accumulation was measured after 1 hour.
Cell-based aequorin assays were employed to characterize the modulatory activity of compounds on the GPR40 signaling pathway. In an exemplary assay, CHO cells were stably transfected with both GPR40 and Aequorin (Euroscreen). Cells were detached from the tissue culture dish with 2 mL of trypsin (0.25%(w/v)). Trypsinization was halted with 28 mL of Hanks Buffered Salt Solution containing 20 mM Hepes (H/HBSS) and 0.01% fatty acid-free human serum albumin (HSA). Coelantrazine is added to 1 ug/mL, and the cells were incubated for 2 hours at room temperature. Compounds were dissolved in DMSO for preparation of 10 mM stock solutions. Compounds were diluted in H/HBSS containing 0.01% HSA. Serial dilutions of the test compounds were prepared to determine dose response.
Aequorin luminescence measurements were made using an EG&G Berthold 96-well luminometer, and the response was measured over a 20 second interval after cells and compounds were mixed. The maximum relative light units was plotted to determine dose response. The EC50 (effective concentration to reach 50% maximal response) was determined from the dose response plot.
For `CCCCOc1cc(COc2cccc(C(C)CC(=O)O)c2)ccc1-c1cccc(F)c1` (single isomer, unassigned) [Example 64.26, (3R)-3-(3-(((2-(butyloxy)-3′-fluoro-1,1′-biphenyl-4-yl)methyl)oxy)phenyl)butanoic acid or (3S)-3-(3-(((2-(butyloxy)-3′-fluoro-1,1′-biphenyl-4-yl)methyl)oxy)phenyl)butanoic acid], the 50% effective concentration (EC50) was in the range of 1000 to 10000 nM.

`CCCCOc1cc(COc2cccc(C(CC)CC(=O)O)c2)ccc1-c1cccc(OC)c1` (single isomer, unassigned) [Example 65.2, (3R)-3-(3-(((2-(Butyloxy)-3′-(methyloxy)-1,1′-biphenyl-4-yl)methyl)oxy)phenyl)pentanoic acid or (3S)-3-(3-(((2-(butyloxy)-3′-(methyloxy)-1,1′-biphenyl-4-yl)methyl)oxy)phenyl)pentanoic acid] showed an EC50 of 100 to 1000 nM.

`CCCCOc1cc(COc2cccc(C(CC(=O)O)C3CC3)c2)ccc1-c1cccc(OC)c1` (single isomer, unassigned) [Example 66.1, (3S)-3-(3-(((2-(Butyloxy)-3′-(methyloxy)-1,1′-biphenyl-4-yl)methyl)oxy)phenyl)-3-cyclopropylpropanoic acid or (3R)-3-(3-(((2-(butyloxy)-3′-(methyloxy)-1,1′-biphenyl-4-yl)methyl)oxy)phenyl)-3-cyclopropylpropanoic acid]: the EC50 was 100 to 1000 nM.

As for `COc1ccc(F)c(-c2ccc(COc3cccc(C(CC(=O)O)C4CC4)c3)cc2C2CCCC2(C)C)c1` (single isomer, unassigned) [Example 66.5], the EC50 fell in the range of 100 to 1000 nM.

Compound `COc1cccc(-c2ccc(COc3cccc(C(CC(=O)O)C4CC4)c3)cc2C2CCCC2(C)C)c1` (single isomer, unassigned) [Example 66.7] came in with an EC50 of 100 to 1000 nM.

`CC1(C)CCC=C1c1cc(COc2cccc([C@@H](CC(=O)O)C3CC3)c2)ccc1-c1cc(O)ccc1F` (single isomer, unassigned) [Example 66.14, (3S)-3-Cyclopropyl-3-(3-(((2-(5,5-dimethyl-1-cyclopenten-1-yl)-2′-fluoro-5′-hydroxy-1,1′-biphenyl-4-yl)methyl)oxy)phenyl)propanoic acid or (3R)-3-cyclopropyl-3-(3-(((2-(5,5-dimethyl-1-cyclopenten-1-yl)-2′-fluoro-5′-hydroxy-1,1′-biphenyl-4-yl)methyl)oxy)phenyl)propanoic acid] came in with an EC50 of 100 to 1000 nM.

`COc1ccc(F)c(-c2ccc(COc3cccc([C@@H](CC(=O)O)C4CC4)c3)cc2C2CCCCCCC2)c1` (single isomer, unassigned) [Example 66.16, (3S)-3-(3-(((2-Cyclooctyl-2′-fluoro-5′-(methyloxy)-1,1′-biphenyl-4-yl)methyl)oxy)phenyl)-3-cyclopropylpropanoic acid or (3R)-3-(3-(((2-cyclooctyl-2′-fluoro-5′-(methyloxy)-1,1′-biphenyl-4-yl)methyl)oxy)phenyl)-3-cyclopropylpropanoic acid] registered an EC50 of 100 to 1000 nM.

For `COc1ccc(F)c(-c2ccc(COc3cccc([C@@H](CC(=O)O)C4CC4)c3)cc2[C@H](C)C(C)(C)C)c1` (single isomer, unassigned) [Example 66.18], the EC50 is 100 to 1000 nM.

In turn, `COc1ccc(F)c(-c2ccc(COc3cccc([C@@H](CC(=O)O)C4CC4)c3)cc2[C@@H]2CCCCC2(C)C)c1` (single isomer, unassigned) [Example 66.21] gave an EC50 of 100 to 1000 nM.

The compound `CC1(C)CCC[C@@H]1c1cc(COc2cccc([C@@H](CC(=O)O)C3CC3)c2)ccc1-c1cc(OCC(F)(F)F)ccc1F` (single isomer, unassigned) [Example 66.23] registered an EC50 of 1000 to 10000 nM.

`CC1(C)CCC[C@@H]1c1cc(COc2cccc([C@@H](CC(=O)O)C3CC3)c2)ccc1-c1cc(OC(F)(F)F)ccc1F` (single isomer, unassigned) [Example 66.29] gave an EC50 of 100 to 1000 nM.

The compound `COc1ccc(F)c(-c2ccc(COc3cccc([C@@H](CC(=O)O)C4CC4)c3)cc2[C@H](F)C(C)(C)C)c1` (single isomer, unassigned) [Example 66.30] came in with an EC50 of 100 to 1000 nM.

In turn, `CO[C@@H](c1cc(COc2cccc([C@@H](CC(=O)O)C3CC3)c2)ccc1-c1ccccc1F)C(C)(C)C` (single isomer, unassigned) [Example 66.32] displayed a concentration for a half-maximal effect (EC50) of 100 to 1000 nM.

`CC1(C)CCCC=C1c1cc(COc2cccc(C(CC(=O)O)C3CC3)c2)ccc1-c1cc(=O)[nH]cc1F` (single isomer, unassigned) [Example 66.35, (3S)-3-Cyclopropyl-3-(3-(((3-(6,6-dimethyl-1-cyclohexen-1-yl)-4-(5-fluoro-2-oxo-1,2-dihydro-4-pyridinyl)phenyl)methyl)oxy)phenyl)propanoic acid or (3R)-3-cyclopropyl-3-(3-(((3-(6,6-dimethyl-1-cyclohexen-1-yl)-4-(5-fluoro-2-oxo-1,2-dihydro-4-pyridinyl)phenyl)methyl)oxy)phenyl)propanoic acid] yielded an EC50 of 1000 to 10000 nM.

`COc1ccc(F)c(-c2ccc(COc3cccc([C@@H](CC(=O)O)C4CC4)c3)cc2C(C2CC2)N(C)C)c1` (single isomer, unassigned) [Example 66.38, (3S)-3-Cyclopropyl-3-(3-(((2-(cyclopropyl(dimethylamino)methyl)-2′-fluoro-5′-(methyloxy)-1,1′-biphenyl-4-yl)methyl)oxy)phenyl)propanoic acid or (3R)-3-cyclopropyl-3-(3-(((2-(cyclopropyl(dimethylamino)methyl)-2′-fluoro-5′-(methyloxy)-1,1′-biphenyl-4-yl)methyl)oxy)phenyl)propanoic acid] registered a concentration giving a half-maximal response (EC50) of 1000 to 10000 nM.

As to `COc1ccc(F)c(-c2ccc(COc3cccc([C@@H](CC(=O)O)C4CC4)c3)cc2C(OC)C(C)(C)CO)c1` (single isomer, unassigned) [Example 66.41, (S)-3-Cyclopropyl-3-{3-[2′-fluoro-2-(3-hydroxy-1-methoxy-2,2-dimethyl-propyl)-5′-methoxy-biphenyl-4-ylmethoxy]-phenyl}-propionic acid or (R)-3-cyclopropyl-3-{3-[2′-fluoro-2-(3-hydroxy-1-methoxy-2,2-dimethyl-propyl)-5′-methoxy-biphenyl-4-ylmethoxy]-phenyl}-propionic acid], the EC50 fell in the range of 100 to 1000 nM.

Take `COc1ccc(F)c(-c2cc(F)c(COc3cccc([C@@H](CC(=O)O)C4CC4)c3)cc2[C@@H]2CCCC2(C)C)c1` (single isomer, unassigned) [Example 66.45]: the concentration for a half-maximal effect (EC50) fell in the range of 100 to 1000 nM.

The compound `COc1ccc(F)c(-c2ccc(COc3cccc([C@@H](CC(=O)O)C4CC4)c3)cc2C2=CCOCC2)c1` (single isomer, unassigned) [Example 66.46, (3S)-3-Cyclopropyl-3-(3-(((2-(3,6-dihydro-2H-pyran-4-yl)-2′-fluoro-5′-(methyloxy)-1,1′-biphenyl-4-yl)methyl)oxy)phenyl)propanoic acid or (3R)-3-cyclopropyl-3-(3-(((2-(3,6-dihydro-2H-pyran-4-yl)-2′-fluoro-5′-(methyloxy)-1,1′-biphenyl-4-yl)methyl)oxy)phenyl)propanoic acid] had an EC50 of 1000 to 10000 nM.

In turn, `CC1(C)CCC[C@H]1c1cc(COc2cccc([C@@H](CC(=O)O)C3CC3)c2)ccc1-c1cccc(OC(F)F)c1` (single isomer, unassigned) [Example 66.47] came in with an EC50 of 100 to 1000 nM.

Regarding `CC1(C)CCC[C@@H]1c1cc(COc2cccc([C@@H](CC(=O)O)C3CC3)c2)ccc1-c1cccc(OC2CC2)c1` (single isomer, unassigned) [Example 66.48], the EC50 lay in the range of 100 to 1000 nM.

As to `CC1(C)CCC[C@H]1c1cc(COc2cccc([C@@H](CC(=O)O)C3CC3)c2)ccc1-c1cc(C(F)F)ccc1F` (single isomer, unassigned) [Example 66.52], the EC50 is 1000 to 10000 nM.

The compound `CC1(C)CCC=C1c1cc(COc2cccc([C@@H](CC(=O)O)C3CC3)c2)ccc1-c1cc(C(F)(F)F)ccc1F` (single isomer, unassigned) [Example 66.53, (3S)-3-Cyclopropyl-3-(3-(((2-(5,5-dimethyl-1-cyclopenten-1-yl)-2′-fluoro-5′-(trifluoromethyl)-1,1′-biphenyl-4-yl)methyl)oxy)phenyl)propanoic acid or (3R)-3-cyclopropyl-3-(3-(((2-(5,5-dimethyl-1-cyclopenten-1-yl)-2′-fluoro-5′-(trifluoromethyl)-1,1′-biphenyl-4-yl)methyl)oxy)phenyl)propanoic acid] gave an EC50 of 1000 to 10000 nM.

`COc1ccc(F)c(-c2ccc(COc3cccc([C@@H](CC(=O)O)C4CC4)c3)cc2[C@H]2OCCCC2(C)C)c1` (single isomer, unassigned) [Example 66.55] had an EC50 of 1000 to 10000 nM.

`C=CC(C)(C)[C@@H](O)c1cc(COc2cccc([C@@H](CC(=O)O)C3CC3)c2)ccc1-c1cc(OC)ccc1F` (single isomer, unassigned) [Example 66.60] showed a half-maximal effective concentration (EC50) of 1000 to 10000 nM.

`C=CC(C)(C)C(O)c1cc(COc2cccc(C(CC(=O)O)C3CC3)c2)ccc1-c1cc(OC)ccc1F` (single isomer, unassigned) [Example 66.61] yielded an EC50 of 100 to 1000 nM.
